# From patent US5726156A, “Cytokine regulatory agents and methods of use in pathologies and conditions associated with altered cytokine levels” (Trega Biosciences, Inc., priority 1995, dated 1998)
# Experiments:
# [1] = system: LPS-induced lethality; experiment: LPS-induced lethality (IP dosing); format: in vivo, mice; settings: 11 × 300 μg/mouse IP (3.3 mg), every 4 hr; 0.6 mg LPS
# Method: These experiments were performed based on information reported by Rivier etal., Endocrinology 125:2800-2805 (1989), which is incorporated herein by reference. Adult female Balb/c mice were provided food and water ad libitum. Mice were injected IP every four hr for 40 hr with 30 to 300 μg EX-2, EX-3 or EX-4 in 0.2 ml saline (treated group) or with 0.2 ml saline, alone (control group) (10 mice per group). Immediately following the first injection, 0.6 mg LPS endotoxin in 0.2 ml saline was administered to each mouse. Following LPS injection, EX-2 or saline was administered to the treated mice or the control mice, respectively, every 4 hr for 36 hr.
# [2] = system: IL-1β-induced hyperalgesia; experiment: IL-1β-induced hyperalgesia, paw pressure test; format: in vivo, rats; parameters: dose or concentration left out as unconfirmed; settings: IP 20 min before IL-1β intraplantar; 2 hr after IL-1
# Method: These experiments were performed using a modification of the methods described by Poole etal., Br. J. Pharmacol. 106:489-492 (1992); Foilenfant et al., Br. J. Pharmacol. 98:41-43 (1989); and Randall and Sellito, Arch. Internatl. Pharmacodyn. 111:409-419 (1957), each of which is incorporated herein by reference. Adult male Sprague-Dawley rats (175-275 g) were tested for hyperalgesia by a paw pressure technique using variable pressure instrumentation (IITC Life Sciences; Woodland Hills, Calif.). Rats were acclimated to the housing environment and were handled for three days prior to beginning a training session. On the day before the hyperalgesia experiments was to begin, each rat was placed into a sock and two variable paw pressure tests were performed 15 min apart. […] Approximately 5-10% of the rats were non-responders and were eliminated from further experiments.
# Animals that responded to the paw pressure were pretreated by IP injection of various concentrations of EX-2 in a volume of 1 ml/kg (treated) or saline, alone (control). After 20 min, 100 μl of IL-1β (1U/100 μl) was administered to rats via intra plantar injection. Two hr after IL-1 administration, rats were subjected to two additional paw pressure tests and the increase in mm Hg of pressure that could be applied to the EX-2-treated rats as compared to the control rats was determined.
# [3] = system: LPS-induced fever; experiment: LPS-induced temperature increase (fever); format: in vivo, rats; settings: 6 hr following LPS injection
# Method: Male Wistar rats (45-75 days old) were placed in a temperature controlled room held at 26° C., which is thermoneutral for the normal body temperature of rats, and were maintained in the room with free access to food and water for 24 hr prior to testing. On the morning of the study, rats were marked for identification and weighed. The temperature of each rat was determined by placing the animal in a regulatory cage designed to minimize stress and inserting a temperature probe (YSI probe #402) 3-5 cm into the animal's rectum. The temperature was recorded 15 sec after the reading stabilized. Measurements were repeated 1 hr later to establish a baseline temperature for each rat.
# After the baseline temperatures were established, rats were injected IP with saline, IL-1β or LPS endotoxin. Rats then were injected IP with either saline (control) or various concentrations of EX-2, EX-3, or EX-4 (treated). The temperature of the rats was measured every hr for 6 hr and the inhibition by EX-2, EX-3, or EX-4 of the rise in temperature due to IL-1β or LPS was determined.
# In addition, treatment with 50 or 150 μg/kg EX-2 inhibited LPS-induced fever by 45% or 52%, respectively, when measured 6 hr following LPS injection. Furthermore, treatment with 150 μg/kg EX-3 or EX-4 inhibited LPS-induced fever by 57% and 52%, respectively (Table II).
# [4] = system: STZ diabetes, blood glucose; experiment: Streptozotocin-induced diabetes; format: in vivo, rats; settings: 150 μg/kg every 8 hr for 72 hr; STZ 65 mg/kg iv
# Method: Male Sprague-Dawley rats were given 65 mg/kg of streptozotocin (STZ) intravenously through the tall vein. Rats were divided into two groups. The first group was administered EX-2, 150 μg/kg every 8 hr for 72 hr and the second group was a control. Blood samples were withdrawn under ether anesthesia every 8 hr for the first 72 hr, then every 12 hr or 24 hr until the end of the observation period. Plasma samples were assayed for glucose using a glucose assay kit (Trinder, Sigma Chemical Co.). As shown in Table VI below EX-2 effect a 72% reduction in blood glucose levels.
# [5] = system: Zucker NIDDM diabetes; experiment: Heritable diabetes, Zucker NIDDM rats; format: in vivo; settings: 25 μg/kg every 8 hr for approximately three months
# Method: Male Zucker rats are a well established rat model for heritable non-insulin dependent diabetes mellitus (NIDDM), as described, for example, by Ward et al., Ann. Clin. Lab. Sci., 24:266-277, (1994), which is incorporated herein by reference. Eighteen male Zucker rats were used to study the effects of EX-2 on NIDDM, a chronic disease. The rats were placed into two groups and received either saline or 25 μg/kg EX-2 every 8 hr for approximately three months. Blood samples were collected by tail clip and urine samples were collected by placing animals in metabolic cages fro 24 hr. Plasma insulin was assayed using an RIA kit (Amersham Life Sciences, Arlington Heights, Ill.). Urine protein was assayed for using a commercial protein assay kit (Coomassie Plus, Pierce, Rockford, Ill.). Body weighed measurements were made with a Mettler Toledo top loader balance.
# [6] = Reduction in body weight, Zucker fa/fa and Fa/+ rats; format: in vivo
# Method: Adult Zucker fatty rats (fa/fa; 325-350 g) or non-obese Zucker rats (Fa/+; 250-275 g) each were divided into two groups. One group each of fa/fa and Fa/+ rats received intraperitoneal (ip) injections of 250 μg/kg EX-2, 3×/day, for 86 days, followed by 2×/day treatments for an additional 29 days. The other group of fa/fa and Fa/+rats received saline on the same schedule.
# Administration of EX-2 caused a significant decrease in the weight gain of fa/fa and of Fa/+ rats (see FIG. 4). Specifically, saline treated fa/fa rats gained about 360 g during the […], whereas EX-2 treated fa/fa rats only gained 275 g, representing a 24% decrease in weight gain. […] In Fa/+ rats, the decreased weight gain was more modest, but again correlated to fat mass rather than lean muscle mass.
# In other experiments, fa/fa rats received 0.5-10 mg/kg EX-2, 2×/day, for 14 days (1-20 mg/day). […] This weight loss correlated with […] consumption by the EX-2 treated rats as compared to the controls.
substance,measurement,setting,value
Ac-Nle-Gln-His-(D)Phe-Arg-(D)Trp-Gly-NH2 [EX-2],Inhibition of LPS-induced Lethality (increase in survival vs control),[1],83%
same,Reduction in IL-1-induced Hyperalgesia (increase in tolerated paw pressure),[2],125%
same,Reduction in LPS-induced Fever,[3]; 50 μg/kg IP,45%
same,Reduction in LPS-induced Fever,[3]; 150 μg/kg IP,52%
same,"% Reduction, STZ Diabetes, Blood Glucose (mg/dl)",[4],72%
same,"% Reduction, Zucker NIDDM Diabetes, Body Weight (grams)",[5],32%
same,"% Reduction, Zucker NIDDM Diabetes, Insulin (ng/ml)",[5],39%
same,"% Reduction, Zucker NIDDM Diabetes, Urine Protein (mg/24 hr)",[5],87%
same,decrease in body weight,[5],approximately 100 gram
same,decreased weight gain,"[6]; Fa/+ (non-obese) rats, 250 μg/kg ip",more modest
same,epididymal fat pad weight,"[6]; fa/fa rats, 250 μg/kg ip",decreased epididymal fat pad weight
same,body weight gained,"[6]; fa/fa rats, 250 μg/kg ip 3×/day then 2×/day, 105 day treatment, saline about 360 g",275 g
same,decrease in weight gain,"[6]; fa/fa rats, 250 μg/kg ip, vs saline treated",24%
same,decrease in body weight,"[6]; fa/fa rats, 20 mg EX-2/day (10 mg/kg 2×/day), 14 days",~10%
same,rate of weight gain,"[6]; fa/fa rats, 0.5-10 mg/kg 2×/day, 14 days, each group",decreased rate of weight gain
